“And” between values parts separate entries of the source, which are not always exact repeats. Equal values may be shown once. Toxic doses and inconclusive results are not listed. How the source made its calls: active means survival T/C of 150% or more; inactive means T/C below 125% in these data.
System: P388 leukemia ip, CD2F1 mice, survival T/C
Assay: NCI In Vivo Anticancer Drug Screen. Data for tumor model P388 Leukemia (intraperitoneal) in CD2F1 (CDF1) mice
Details: endpoint: median survival time, higher = longer survival
Method in brief: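 Mice carrying the transplanted tumor received test compound or vehicle. Survival was recorded in each group, and the value is the treated-group measurement divided by that of the vehicle-treated control group.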

[1] = dose: 100.0 mg/kg/injection, schedule: Q04DX002 (ip), vehicle: Klucel (hydroxypropylcellulose) (HPC)
[2] = dose: 200.0 mg/kg/injection, schedule: Q04DX002 (ip), vehicle: Klucel (hydroxypropylcellulose) (HPC)
[3] = dose: 60.0 mg/kg/injection, schedule: Q01DX005 (ip), vehicle: saline with Tween-80
[4] = dose: 120.0 mg/kg/injection, schedule: Q01DX005 (ip), vehicle: saline with Tween-80
[5] = dose: 50.0 mg/kg/injection, schedule: Q01DX005 (ip), vehicle: Klucel (hydroxypropylcellulose) (HPC)
[6] = dose: 100.0 mg/kg/injection, schedule: Q01DX005 (ip), vehicle: Klucel (hydroxypropylcellulose) (HPC)
[7] = dose: 200.0 mg/kg/injection, schedule: Q01DX005 (ip), vehicle: Klucel (hydroxypropylcellulose) (HPC)
[8] = dose: 6.25 mg/kg/injection, schedule: Q01DX009 (ip), vehicle: saline
[9] = dose: 12.5 mg/kg/injection, schedule: Q01DX009 (ip), vehicle: saline
[10] = dose: 50.0 mg/kg/injection, schedule: Q01DX009 (ip), vehicle: saline
[11] = dose: 50.0 mg/kg/injection, schedule: Q01DX009 (ip), vehicle: Klucel (hydroxypropylcellulose) (HPC)
[12] = dose: 100.0 mg/kg/injection, schedule: Q01DX009 (ip), vehicle: Klucel (hydroxypropylcellulose) (HPC)
[13] = dose: 200.0 mg/kg/injection, schedule: Q01DX009 (ip), vehicle: Klucel (hydroxypropylcellulose) (HPC)
[14] = dose: 25.0 mg/kg/injection, schedule: Q01DX009 (ip), vehicle: saline with Tween-80
[15] = dose: 50.0 mg/kg/injection, schedule: Q01DX009 (ip), vehicle: saline with Tween-80
[16] = dose: 100.0 mg/kg/injection, schedule: Q01DX009 (ip), vehicle: saline with Tween-80
[17] = dose: 200.0 mg/kg/injection, schedule: Q01DX009 (ip), vehicle: saline with Tween-80

Measured: T/C

COc1ccc2c(NCCCCCCCCNc3c4ccc(Cl)cc4nc4cc(OC)ccc34)c3ccc(Cl)cc3nc2c1
inactive: dose: 0.63 mg/kg/injection, schedule: Q01DX009 (ip), vehicle: other 117 % of control | dose: 1.25 mg/kg/injection, schedule: Q01DX009 (ip), vehicle: other 100 % of control | dose: 2.5 mg/kg/injection, schedule: Q01DX009 (ip), vehicle: other 96 % of control | dose: 5.0 mg/kg/injection, schedule: Q01DX009 (ip), vehicle: other 105 % of control | dose: 10.0 mg/kg/injection, schedule: Q01DX009 (ip), vehicle: other 100 % of control | dose: 20.0 mg/kg/injection, schedule: Q01DX009 (ip), vehicle: other 88 % of control

C/C=C(\C)C(=O)Nc1c(C)cccc1Cl
inactive: [1] 106 % of control | [2] 104 % of control

CCC(/C=C/c1ccccc1)=N\NC(=O)c1ccc(Cl)cc1
inactive: [3] 101 % of control | [4] 96 % of control | dose: 240.0 mg/kg/injection, schedule: Q01DX005 (ip), vehicle: saline with Tween-80 105 % of control

O=[N+]([O-])c1ccc(S(=O)(=O)c2ccc(Nc3ccnc4cc(Cl)ccc34)cc2)cc1
inactive: [5] 98 % of control | [6] 91 % of control | [7] 90 % of control

Cc1c(O)c(O)c2c(c1O)N=C(Cl)/C2=C\N=NC(N)=S
inactive: dose: 100.0 mg/kg/injection, schedule: Q01DX001 (ip), vehicle: Klucel (hydroxypropylcellulose) (HPC) 99 % of control | dose: 200.0 mg/kg/injection, schedule: Q01DX001 (ip), vehicle: Klucel (hydroxypropylcellulose) (HPC) 95 % of control | dose: 400.0 mg/kg/injection, schedule: Q01DX001 (ip), vehicle: Klucel (hydroxypropylcellulose) (HPC) 106 % of control

NC1CC1N (stereo not drawn)
inactive: [8] 101 % of control | dose: 12.5 mg/kg/injection, schedule: Q01DX001 (ip), vehicle: saline 107 % of control | [9] 101 % of control | dose: 25.0 mg/kg/injection, schedule: Q01DX001 (ip), vehicle: saline 107 % of control | dose: 25.0 mg/kg/injection, schedule: Q01DX009 (ip), vehicle: saline 100 % of control | dose: 50.0 mg/kg/injection, schedule: Q01DX001 (ip), vehicle: saline 101 % of control

O=NNc1ccc(Sc2ccc(NN=O)cn2)nc1
inactive: dose: 3.12 mg/kg/injection, schedule: Q01DX009 (ip), vehicle: saline 100 % of control | [8] 107 % of control | [9] 114 % of control | [10] 122 % of control

O=C1C(=C2C=CN(CCN3CCCCC3)C=C2)C(=O)c2ccccc21
inactive: [11] 100 % of control | [12] 100 % of control | [13] 87 % of control

O=C1/C(=C/c2ccc(O)c(O)c2)Cc2ccccc21
inactive: [14] 102 % of control | [15] 103 % of control | [16] 105 % of control | [17] 103 % of control

Cc1cc(C)c2c(c1)sc1n[nH]c(=S)n12
inactive: [11] 98 % of control | [12] 90 % of control | [13] 90 % of control

[Co].[N-]=C=S.[N-]=C=S.[N-]=C=S.[NH-]CC[N-]CC[NH-]
inactive: dose: 2.5 mg/kg/injection, schedule: Q01DX009 (ip), vehicle: saline 114 % of control | dose: 5.0 mg/kg/injection, schedule: Q01DX009 (ip), vehicle: saline 114 % of control | dose: 10.0 mg/kg/injection, schedule: Q01DX009 (ip), vehicle: saline 107 % of control | dose: 22.0 mg/kg/injection, schedule: Q01DX009 (ip), vehicle: saline 88 % of control | dose: 44.0 mg/kg/injection, schedule: Q01DX009 (ip), vehicle: saline 100 % of control | [10] 118 % of control

O=C(O)C1=C(/C=C(/c2ccccc2)c2ccc(Cl)cc2)OCCC1
inactive: [15] 90 % of control | [16] 94 % of control | [17] 105 % of control

COc1cccc(C2OC3=C(Nc4ccc(Cl)cc4N3)C2=O)c1 (stereo not drawn)
inactive: [5] 93 % of control | [6] 104 % of control | [7] 90 % of control

Cc1cccc(Nc2nc(C)nc3[nH]cc(C)c23)c1
inactive: [5] 92 % of control | [6] 90 % of control

[Cl][Pt+2][Cl].[NH-]c1nc2ccc(Br)cc2s1.[NH-]c1nc2ccc(Br)cc2s1
inactive: dose: 100.0 mg/kg/injection, schedule: Q04DX002 (ip), vehicle: saline with Tween-80 103 % of control | dose: 200.0 mg/kg/injection, schedule: Q04DX002 (ip), vehicle: saline with Tween-80 91 % of control

CCC(C)(O)P(=O)(O)O (stereo not drawn)
inactive: [10] 98 % of control | dose: 100.0 mg/kg/injection, schedule: Q01DX009 (ip), vehicle: saline 98 % of control | dose: 200.0 mg/kg/injection, schedule: Q01DX009 (ip), vehicle: saline 95 % of control

FC(F)(F)c1c[nH]cc1C(F)(F)F
inactive: dose: 50.0 mg/kg/injection, schedule: Q04DX002 (ip), vehicle: Klucel (hydroxypropylcellulose) (HPC) 109 % of control

NC(=O)C(=O)c1cc(Cl)c(Cl)c(Cl)c1Cl
inactive: [14] 105 % of control | [15] 99 % of control | [16] 96 % of control

CC(=O)c1sc(SSc2sc(C(C)=O)c(C)c2[N+](=O)[O-])c([N+](=O)[O-])c1C
inactive: [1] 91 % of control | [2] 89 % of control | dose: 400.0 mg/kg/injection, schedule: Q04DX002 (ip), vehicle: Klucel (hydroxypropylcellulose) (HPC) 86 % of control

CCCC(=O)C(CC)C1(C(=O)OC)NC(=S)NC(=O)C1C#N (stereo not drawn)
inactive: dose: 60.0 mg/kg/injection, schedule: Q01DX005 (ip), vehicle: saline 98 % of control | dose: 120.0 mg/kg/injection, schedule: Q01DX005 (ip), vehicle: saline 105 % of control | dose: 240.0 mg/kg/injection, schedule: Q01DX005 (ip), vehicle: saline 98 % of control

CC(CN(C)C)C(=O)/C=C/c1ccc(Cl)c(Cl)c1 (stereo not drawn)
inactive: dose: 15.0 mg/kg/injection, schedule: Q01DX005 (ip), vehicle: saline with Tween-80 122 % of control | dose: 30.0 mg/kg/injection, schedule: Q01DX005 (ip), vehicle: saline with Tween-80 116 % of control | [3] 111 % of control and 117 % of control

CCOC(=O)C(=O)Nc1cccc(NC(=O)C(=O)OCC)n1
inactive: [3] 100 % of control | [4] 94 % of control

CC1(C)OC2C(COC(c3ccccc3)(c3ccccc3)c3ccccc3)OC(n3ccc(=O)[nH]c3=O)C2O1 (stereo not drawn)
inactive: [5] 97 % of control | [6] 89 % of control | [7] 88 % of control

COC1/C=C\C=C(/C)C(=O)NC2=CC(=O)C(N)=C(CC(C)CC(OC)C(O)C(C)C=C(C)C1OC(N)=O)C2=O (stereo not drawn)
inactive: dose: 0.75 mg/kg/injection, schedule: Q01DX009 (ip), vehicle: saline with Tween-80 103 % of control | dose: 1.5 mg/kg/injection, schedule: Q01DX009 (ip), vehicle: saline with Tween-80 105 % of control | dose: 3.0 mg/kg/injection, schedule: Q01DX009 (ip), vehicle: saline with Tween-80 111 % of control | dose: 6.0 mg/kg/injection, schedule: Q01DX009 (ip), vehicle: saline with Tween-80 87 % of control

— PubChem BioAssay AID330 (DTP/NCI, 2004)
